This note sets out measurements from US20240287047A1, “PESTICIDALLY ACTIVE DIAZINE-AMIDE COMPOUNDS” (SYNGENTA CROP PROTECTION AG, priority 2021, published 2024).

Type in all cases: in vivo
The subject of experiment [1] is Chilo suppressalis. Kind of experiment: Example B1: Chilo suppressalis (striped rice stemborer), artificial diet, L2 larvae. The note with it: 144 h, application rate of 200 ppm, 6 days after infestation, read-out: control in at least one of the three categories (mortality, anti-feedant effect, or growth inhibition). As to the method:
24-well microtiter plates with artificial diet were treated with aqueous test solutions prepared from 10,000 ppm DMSO stock solutions by pipetting. After drying, the plates were infested with L2 larvae (6-8 per well). The samples were assessed for mortality, anti-feeding effect, and growth inhibition in comparison to untreated samples 6 days after infestation. Control of Chilo suppressalis by a test sample is given when at least one of the categories mortality, anti-feedant effect, and growth inhibition is higher than the untreated sample.

Experiment [2] concerns Diabrotica balteata. Kind of experiment: Example B2: Diabrotica balteata (corn root worm), maize sprouts, L2 larvae. As to conditions: for percent control (mortality or growth inhibition) at 200 ppm: Diabrotica balteata, 96 h, application rate of 200 ppm, 4 days after infestation, read-out: control in at least one of the two categories (mortality or growth inhibition). The protocol: Maize sprouts placed onto an agar layer in 24-well microtiter plates were treated with aqueous test solutions prepared from 10,000 ppm DMSO stock solutions by spraying. After drying, the plates were infested with L2 larvae (6 to 10 per well). The samples were assessed for mortality and growth inhibition in comparison to untreated samples 4 days after infestation.

Experiment [3] deals with Myzus persicae. Kind of experiment: Example B3: Myzus persicae (green peach aphid) intrinsic activity. The note with it: 120 h, test rate of 12 ppm, 5 days after infestation. As to the method: Test compounds prepared from 10′000 ppm DMSO stock solutions were applied by pipette into 24-well microtiter plates and mixed with sucrose solution. The plates were closed with a stretched Parafilm. A plastic stencil with 24 holes was placed onto the plate and infested pea seedlings were placed directly on the Parafilm. The infested plate was closed with a gel blotting paper and another plastic stencil and then turned upside down. The samples were assessed for mortality 5 days after infestation.

In experiment [4] the test system is Plutella xylostella. Kind of experiment: Example B4: Plutella xylostella (diamond back moth), artificial diet, eggs. The note with it: Plutella xylostella, 192 h; application rate of 200 ppm; 8 days after infestation; read-out: control in at least one of the two categories (mortality or growth inhibition). The protocol: 24-well microtiter plates with artificial diet were treated with aqueous test solutions prepared from 10′000 ppm DMSO stock solutions by pipetting. After drying, Plutella eggs were pipetted through a plastic stencil onto a gel blotting paper and the plate was closed with it. The samples were assessed for mortality and growth inhibition in comparison to untreated samples 8 days after infestation.

Experiment [5] relates to Spodoptera littoralis. The experiment in a line: Example B5: Spodoptera littoralis (Egyptian cotton leaf worm), cotton leaf discs, L1 larvae. The note with it: foliar, 72 h, application rate of 200 ppm, 3 days after infestation, read-out: control in at least one of the three categories (mortality, anti-feedant effect, or growth inhibition). As to the method: Cotton leaf discs were placed onto agar in 24-well microtiter plates and sprayed with aqueous test solutions prepared from 10,000 ppm DMSO stock solutions. After drying the leaf discs were infested with five L1 larvae. The samples were assessed for mortality, anti-feeding effect, and growth inhibition in comparison to untreated samples 3 days after infestation. Control of Spodoptera littoralis by a test sample is given when at least one of the categories mortality, anti-feedant effect, and growth inhibition is higher than the untreated sample.

The structures appear in SMILES notation.

What is called mortality is the share of the test organisms that died. Higher therefore signals a strong lethal effect. For the molecule `CC(NC(=O)c1cc(Cl)cc(S(C)(=O)=O)c1)c1nccnc1-c1cnccn1` (stereo not drawn) [Compound P26, 3-chloro-5-methylsulfonyl-N-[1-(3-pyrazin-2-ylpyrazin-2-yl)ethyl]benzamide], the percent control (mortality, anti-feedant effect or growth inhibition) at 200 ppm in experiment [1] and in experiment [5] was at least 80% each time. Besides, the percent control (mortality or growth inhibition) at 200 ppm in experiment [2] and in experiment [4] was at least 80% throughout. In experiment [3], this molecule registered a mortality at 12 ppm of at least 80%.
As to `CC(NC(=O)c1cc(OC(F)F)cc(C2(C#N)CC2)c1)c1nccnc1-c1cnccn1` (stereo not drawn) [Compound P32, 3-(1-cyanocyclopropyl)-5-(difluoromethoxy)-N-[1-(3-pyrazin-2-ylpyrazin-2-yl)ethyl]benzamide], the percent control (mortality, anti-feedant effect or growth inhibition) at 200 ppm in experiment [1] and in experiment [5] was at least 80% in each case. Further, the mortality at 12 ppm in experiment [3] is at least 80%.
Consider `CC(NC(=O)c1cc(Br)nc(C2(C#N)CC2)c1)c1nccnc1-c1cnccn1` (stereo not drawn) [Compound P3, 2-bromo-6-(1-cyanocyclopropyl)-N-[1-(3-pyrazin-2-ylpyrazin-2-yl)ethyl]pyridine-4-carboxamide], for which the percent control (mortality, anti-feedant effect or growth inhibition) at 200 ppm in experiment [1] and in experiment [5] was at least 80% throughout. The percent control (mortality or growth inhibition) at 200 ppm in experiment [2] and in experiment [4] was at least 80% in each case.
On to `CC(NC(=O)c1cc(C(F)F)cc(C(F)(F)F)c1)c1nccnc1-c1cnccn1` (stereo not drawn) [Compound P10, 3-(difluoromethyl)-N-[1-(3-pyrazin-2-ylpyrazin-2-yl)ethyl]-5-(trifluoromethyl)benzamide], for which the percent control (mortality, anti-feedant effect or growth inhibition) at 200 ppm in experiment [1] and in experiment [5] was at least 80% throughout. In experiment [2] (Concentration 50 ppm, Diabrotica balteata (Example B32)), this molecule had a mortality at 50 ppm of 100%. In addition, the percent control (mortality or growth inhibition) at 200 ppm in experiment [2] and in experiment [4] was at least 80% in each case.
As for `CC(NC(=O)c1cc(Cl)nc(C2(C#N)CC2)c1)c1nccnc1-c1cnccn1` (stereo not drawn) [Compound P27, 2-chloro-6-(1-cyanocyclopropyl)-N-[1-(3-pyrazin-2-ylpyrazin-2-yl)ethyl]pyridine-4-carboxamide], the percent control (mortality, anti-feedant effect or growth inhibition) at 200 ppm in experiment [1] and in experiment [5] was at least 80% in each case. Moreover, the percent control (mortality or growth inhibition) at 200 ppm in experiment [2] and in experiment [4] was at least 80% in each case.
In the case of `C[C@@H](c1nccnc1-c1cnccn1)N(C)C(=O)c1cc(C(F)(F)F)cc(C(C)(C)C#N)c1` [Compound E12, 3-(1-cyano-1-methyl-ethyl)-N-methyl-N-[(1S)-1-(3-pyrazin-2-ylpyrazin-2-yl)ethyl]-5-(trifluoromethyl)benzamide], the percent control (mortality or growth inhibition) at 200 ppm in experiment [2] was at least 80%. In experiment [3], this molecule returned a mortality at 12 ppm of at least 80%. For the same molecule, the percent control (mortality, anti-feedant effect or growth inhibition) at 200 ppm in experiment [5] was at least 80%.
Take `CC(NC(=O)c1cc(C(F)(F)F)cc(C(C)(C)C#N)c1)c1nccnc1-c1cnc(Cl)cn1` (stereo not drawn) [Compound P37, N-[1-[3-(5-chloropyrazin-2-yl)pyrazin-2-yl]ethyl]-3-(1-cyano-1-methyl-ethyl)-5-(trifluoromethyl)benzamide]: the percent control (mortality, anti-feedant effect or growth inhibition) at 200 ppm in experiment [1] and in experiment [5] was at least 80% in each case. The percent control (mortality or growth inhibition) at 200 ppm in experiment [2] and in experiment [4] was at least 80% each time.
Regarding `C[C@H](NC(=O)c1cc(C(F)(F)F)cc(C(C)(C)C#N)c1)c1nccnc1-c1cnccn1` [Compound E7], the percent control (mortality, anti-feedant effect or growth inhibition) at 200 ppm in experiment [1] and in experiment [5] was at least 80% throughout. The percent control (mortality or growth inhibition) at 200 ppm in experiment [2] and in experiment [4] was at least 80% throughout. Further, the mortality at 12 ppm in experiment [3] was at least 80%.
Consider `CC(NC(=O)c1cc(C(F)(F)F)nc(C2(C#N)CC2)c1)c1nccnc1-c1cnccn1` (stereo not drawn) [Compound P4], for which the percent control (mortality, anti-feedant effect or growth inhibition) at 200 ppm in experiment [1] and in experiment [5] was at least 80% in each case. Moreover, the percent control (mortality or growth inhibition) at 200 ppm in experiment [2] and in experiment [4] was at least 80% in each case.
`CC(NC(=O)c1cc(C2CC2)nc(C(F)(F)F)c1)c1nccnc1-c1cnccn1` (stereo not drawn) [Compound P11, 2-cyclopropyl-N-[1-(3-pyrazin-2-ylpyrazin-2-yl)ethyl]-6-(trifluoromethyl)pyridine-4-carboxamide]: the percent control (mortality, anti-feedant effect or growth inhibition) at 200 ppm in experiment [1] and in experiment [5] was at least 80% each time. In addition, the percent control (mortality or growth inhibition) at 200 ppm in experiment [2] and in experiment [4] was at least 80% in each case.
Take `CC(c1nccnc1-c1cnccn1)N(C)C(=O)c1cc(Cl)nc(C2(C#N)CC2)c1` (stereo not drawn) [Compound P29, 2-chloro-6-(1-cyanocyclopropyl)-N-methyl-N-[1-(3-pyrazin-2-ylpyrazin-2-yl)ethyl]pyridine-4-carboxamide]: the percent control (mortality, anti-feedant effect or growth inhibition) at 200 ppm in experiment [1] and in experiment [5] was at least 80% each time. The percent control (mortality or growth inhibition) at 200 ppm in experiment [2] and in experiment [4] was at least 80% each time.
For the molecule `CC(NC(=O)c1cc(Cl)cc(I)c1)c1nccnc1-c1cnccn1` (stereo not drawn) [Compound P13, 3-chloro-5-iodo-N-[1-(3-pyrazin-2-ylpyrazin-2-yl)ethyl]benzamide], the percent control (mortality, anti-feedant effect or growth inhibition) at 200 ppm in experiment [1] and in experiment [5] was at least 80% each time. Further, the percent control (mortality or growth inhibition) at 200 ppm in experiment [2] and in experiment [4] was at least 80% throughout.
With `CC(NC(=O)c1cc(I)cc(C(F)(F)F)c1)c1nccnc1-c1cnc(Cl)cn1` (stereo not drawn) [Compound P34, N-[1-[3-(5-chloropyrazin-2-yl)pyrazin-2-yl]ethyl]-3-iodo-5-(trifluoromethyl)benzamide], the percent control (mortality, anti-feedant effect or growth inhibition) at 200 ppm in experiment [1] and in experiment [5] was at least 80% in each case. The percent control (mortality or growth inhibition) at 200 ppm in experiment [2] and in experiment [4] was at least 80% throughout.
Turning to `CC(NC(=O)c1cc(C(F)(F)F)cc(S(C)(=O)=O)c1)c1nccnc1-c1cnc(Cl)cn1` (stereo not drawn) [Compound P35, N-[1-[3-(5-chloropyrazin-2-yl)pyrazin-2-yl]ethyl]-3-methylsulfonyl-5-(trifluoromethyl)benzamide], the percent control (mortality, anti-feedant effect or growth inhibition) at 200 ppm in experiment [1] and in experiment [5] was at least 80% in each case. Moreover, the percent control (mortality or growth inhibition) at 200 ppm in experiment [2] and in experiment [4] was at least 80% in each case.
Consider `CC(NC(=O)c1cc(Br)cc(I)c1)c1nccnc1-c1cnccn1` (stereo not drawn) [Compound P24, 3-bromo-5-iodo-N-[1-(3-pyrazin-2-ylpyrazin-2-yl)ethyl]benzamide], for which the percent control (mortality, anti-feedant effect or growth inhibition) at 200 ppm in experiment [1] and in experiment [5] was at least 80% in each case. In addition, the percent control (mortality or growth inhibition) at 200 ppm in experiment [2] and in experiment [4] was at least 80% each time.
`CC(NC(=O)c1cc(C(F)(F)F)cc(C(C)(C)C#N)c1)c1nccnc1-c1cnccn1` (stereo not drawn) [Compound P5, 3-(1-cyano-1-methyl-ethyl)-N-[1-(3-pyrazin-2-ylpyrazin-2-yl)ethyl]-5-(trifluoromethyl)benzamide]: the percent control (mortality, anti-feedant effect or growth inhibition) at 200 ppm in experiment [1] and in experiment [5] was at least 80% throughout. The percent control (mortality or growth inhibition) at 200 ppm in experiment [2] and in experiment [4] was at least 80% in each case.
Regarding `C[C@H](NC(=O)c1cc(I)cc(C(F)(F)F)c1)c1nccnc1-c1cnccn1` [Compound E4, 3-iodo-N-[(1S)-1-(3-pyrazin-2-ylpyrazin-2-yl)ethyl]-5-(trifluoromethyl)benzamide], the percent control (mortality, anti-feedant effect or growth inhibition) at 200 ppm in experiment [1] and in experiment [5] was at least 80% in each case. Also, the percent control (mortality or growth inhibition) at 200 ppm in experiment [2] and in experiment [4] was at least 80% throughout.
